Experiments:
Format in all cases: cell-based, human
[1] = tested on: ASCs; assay: Monolayer osteogenic differentiation of ASCs (Alizarin Red S, calcium quantification); conditions: for calcium deposition per cell / total calcium deposition: ASCs in OM for 21 days, PDGF-BB 0, 2, 20 ng/mL or AG1295 0, 1, 10 μM
Procedure: (§1) Vascular medium (VM) consisted of: Endothelial Basal Medium-2 (Lonza), 6% FBS, 1% penicillin/streptomycin, 10 ng/mL VEGF165, 1 ng/mL FGF-2, and 1 μg/mL L-ascorbic acid-2-phosphate (Sigma). For monolayer osteogenic differentiation experiments, control medium consisted of low glucose DMEM (GIBCO Invitrogen), 6% FBS, and 1% penicillin/streptomycin; Osteogenic Medium (OM) consisted of control medium plus 10 mM β-glycerophosphate (Sigma) and 50 μM L-ascorbic acid-2-phosphate. For osteogenic differentiation in fibrin gels, OM also included 10 ng/mL VEGF165 and 1 ng/mL FGF-2 to support vascular viability. The composition of FGF-2 and dexamethasone in VM and OM were optimized to support both vascular and osteogenic development (FIG. 2). […] All growth factors were purchased from PeproTech.
(§2) For monolayer experiments, ASCs were seeded at 5000 cells/cm^2 and cultured in either control medium or OM for 21 days, with the addition of either PDGF-BB or PDGF receptor inhibitor tyrphostin AG1295 (Santa Cruz Biotechnology). Mineralization was assessed via Alizarin Red S staining and quantification of calcium content. For fibrin gel experiments, samples were cultured in VM for up to 8 days followed by up to 12 days of OM supplemented with VEGF and FGF-2. Mineralization was assessed via quantification of calcium content normalized to DNA content. For Alizarin Red S staining, monolayers were washed twice with PBS, fixed with 3.7% formaldehyde for 20 min, and then washed again three times. Samples were subsequently incubated for 10 min with 40 mM Alizarin Red S (Sigma) and washed extensively prior to imaging. To quantify calcium content in each sample, monolayers or whole fibrin gels were washed twice with PBS and then incubated with 0.5 N HCl overnight at 4° C. with agitation. Calcium content in the sample supernatants was quantified using a colorimetric Calcium LiquiColor Test (Stanbio). DNA content was quantified using a PicoGreen dsDNA quantitation kit (Molecular Probes) as previously described. Hutton D. L., et al., Tissue Eng Part A 18, 1729-40, 2012.
The effects of exogenous PDGF-BB on osteogenic differentiation and vascular morphogenesis of ASCs were studied independently. ASCs were cultured in OM for 21 days with the addition of either PDGF-BB (0 ng/mL, 2 ng/mL, or 20 ng/mL) or PDGF receptor inhibitor AG1295 (0 μM, 1 μM, or 10 μM).

[2] = tested on: ASCs; assay: Vascular morphogenesis of fibrin-encapsulated ASC spheroids in vascular medium
Procedure: Cells were trypsinized and resuspended at a concentration of 400,000 cells/mL (this concentration varied in the aggregation study where different cluster sizes were being compared) in culture medium containing 0.24% (w/v) methylcellulose (Sigma). The cell suspension was pipetted as 10 μL drops onto inverted Petri dish caps, which were then reverted and placed on dish bottoms containing sterile water to reduce evaporation. Dishes were incubated at 37° C. overnight to allow cellular aggregation at the air-liquid interface. The dish caps were then flooded with PBS to allow bulk collection and transfer of the spheroids to conical tubes.
(§3) Settled spheroid pellets were resuspended in fibrinogen (8 mg/mL final; Sigma), followed by the addition of thrombin (2.5 U/mL final; Sigma) to initiate gelation. Fibrin gels (35 μL) containing 40 spheroids each (in the aggregation study the number of spheroids per gel was varied to keep the total cell number constant) were pipetted into 6-mm diameter wells and incubated at 37° C. for 30 minutes to allow complete gelation prior to the addition of culture medium. Samples were then cultured for two to three weeks, depending on the experiment, with media changed every other day.
as §1
(§4) All incubation and washing steps were carried out at 4° C. with gentle agitation. Samples were fixed with 3.7% formaldehyde for 3 hrs, and then washed with PBS three times for 30 min each. Fixed gels were carefully removed from their wells and transferred to microcentrifuge tubes for subsequent staining procedures. Gels were permeabilized and blocked for 4 hrs with 0.2% triton X-100 and 5% normal goat serum (Sigma) in PBS with 0.1% Tween (PTw). Samples were then incubated overnight with primary antibodies diluted in blocking solution, followed by three 1-hr washes in PTw. Primary antibodies included: mouse anti-CD31 (4 μg/mL; Santa Cruz Biotechnology) and either rabbit anti-laminin (7 μg/mL; Sigma), rabbit anti-osteocalcin (10 μg/mL; Santa Cruz Biotechnology), or rabbit anti-NG2 (10 μg/mL; Millipore). Samples were then incubated overnight with DyLight 488-conjugated goat anti-mouse and DyLight 649-conjugated goat anti-rabbit (both 1:400; Jackson ImmunoResearch) diluted in blocking solution, followed by three 1-hr washes in PTw. Lastly, samples were blocked in 5% normal mouse serum for 4 hrs, incubated overnight with Cy3-conjugated mouse anti-αSMA (7 μg/mL; Sigma), and then washed three times for 1 hr each. Gels were mounted in 70% glycerol in chamber slides and imaged using a Zeiss LSM 510 confocal microscope with a 5× objective.
Confocal z-stacks of immunostained gels were z-projected and thresholded for subsequent quantification of vessel network parameters (n=6 images per group). Thresholded images were analyzed with AngioQuant software, Niemisto A., et al., IEEE Trans Med Imaging 24, 549-53, 2005, to quantify total vessel length, area, and interconnectivity. ImageJ software (NIH) was used to quantify pericyte coverage of vessels, which was defined as αSMA+ area within at least 5 μm of the abluminal face of vessel networks. […]

[3] = tested on: adipose-derived stem cells (ASCs); assay: Osteogenic differentiation of ASCs with transient cytokine exposure; conditions: IL-1β only for the first two days, then cultured without it
Description: In each case, the cytokine was provided for the first two days of culture and removed for the remaining 19 days. The samples are stained for calcium deposition (red) which is indicative of new bone formation;
Accordingly, cells were provided with IL-1β only for the first two days and cultured in the absence of IL-1β for the remaining three weeks of culture.

[4] = tested on: ASCs; assay: Vascularized bone co-development: encapsulated ASC spheroids, VM 8 days then OM 12 days
Procedure: as §3
as §1, with “viability.” for “viability. The composition of FGF-2 and dexamethasone in VM and OM were optimized to support both vascular and osteogenic development (FIG. 2).”
as §2, §4

[5] = medium optimization with dexamethasone and FGF-2

With Cc1cc2ncc(-c3ccccc3)nc2cc1C [AG1295, tyrphostin AG1295, reference compound] the “calcium deposition per cell” value [1] was “unchanged relative to the OM only group”, the total calcium deposition [1] was “decreased in a dose dependent manner” and the pericyte coverage ([2]; VM for 14 days) was “only slightly reduced”.
“FGF-2: fibroblast growth factor-2 (PeproTech)” was tested, and the “calcium deposition in osteogenic cultures” value ([1]; 1 ng/mL FGF-2, dexamethasone 0 nM to 10 nM) was “significantly greater calcium deposition”, the “pericyte coverage in vascular cultures” value [2, 5] was “slight increase” and the “vessel network growth / length in vascular cultures” value [2, 5] was “slight increase”. The “vessel width in vascular cultures” value [2, 5] was “increased vessel width”.
In the case of IL-1β: pro-inflammatory cytokine, the “ASC differentiation into bone-forming cells” value [3] is reported as “dose dependent effect”.
For “PDGF-BB: exogenous platelet-derived growth factor-BB, dimeric glycoprotein of two B chains, purchased from PeproTech”, the “calcium deposition per cell” value [1] was “significantly increased in a dose-dependent manner”, the total calcium deposition [1] was “significantly increased in a dose-dependent manner” and the “increase in total vessel length” value ([2]; 2 ng/mL, VM for 14 days) was 1.4 fold. The vessel width ([2]; 20 ng/mL, VM for 14 days) was “noticeably wider”, the “effect on total vessel length overall” value ([2]; VM for 14 days) was “did not have statistically significant effects” and the “reduction of pericyte coverage” value ([2]; VM for 14 days) was 2.9 fold. For the same molecule, the “calcium content versus control group (VM-OM)” value ([4]; 20 ng/mL) was “substantially greater than both”, the “vascular network length versus control group (VM-OM)” value ([4]; 20 ng/mL) was “substantially greater than both” and the “calcium deposition, PDGF-BB greater than BMP-2” value ([4]; 20 ng/mL each) was 4.2 fold. The “calcium per cell, PDGF-BB greater than BMP-2” value ([4]; 20 ng/mL each) was 5.6 fold, the “total vascular network length, PDGF-BB higher than BMP-2” value ([4]; 20 ng/mL each) was 2.3 fold and the “calcium content per cell, greater than without PDGF-BB” value ([4]; 20 ng/mL throughout) was 5.2 fold. The “osteocalcin production (semiquantitative), greater than without PDGF-BB” value ([4]; 20 ng/mL throughout) was 1.4 fold, the “vascular network length, greater than without PDGF-BB” value ([4]; 20 ng/mL throughout) was 2.7 fold and the “αSMA intensity, less than without PDGF-BB” value ([4]; 20 ng/mL throughout) was 2.1 fold.
